Biological target: T1, STAT6 (Homo sapiens, UniProt P42226)
T1 construct: These cells express endogenous STAT6; host or cells: HeLa LgBiT clone 4.14 (CRISPR knock-in of HiBiT into the endogenous STAT6 gene)
T1 sequence (P42226 1-847): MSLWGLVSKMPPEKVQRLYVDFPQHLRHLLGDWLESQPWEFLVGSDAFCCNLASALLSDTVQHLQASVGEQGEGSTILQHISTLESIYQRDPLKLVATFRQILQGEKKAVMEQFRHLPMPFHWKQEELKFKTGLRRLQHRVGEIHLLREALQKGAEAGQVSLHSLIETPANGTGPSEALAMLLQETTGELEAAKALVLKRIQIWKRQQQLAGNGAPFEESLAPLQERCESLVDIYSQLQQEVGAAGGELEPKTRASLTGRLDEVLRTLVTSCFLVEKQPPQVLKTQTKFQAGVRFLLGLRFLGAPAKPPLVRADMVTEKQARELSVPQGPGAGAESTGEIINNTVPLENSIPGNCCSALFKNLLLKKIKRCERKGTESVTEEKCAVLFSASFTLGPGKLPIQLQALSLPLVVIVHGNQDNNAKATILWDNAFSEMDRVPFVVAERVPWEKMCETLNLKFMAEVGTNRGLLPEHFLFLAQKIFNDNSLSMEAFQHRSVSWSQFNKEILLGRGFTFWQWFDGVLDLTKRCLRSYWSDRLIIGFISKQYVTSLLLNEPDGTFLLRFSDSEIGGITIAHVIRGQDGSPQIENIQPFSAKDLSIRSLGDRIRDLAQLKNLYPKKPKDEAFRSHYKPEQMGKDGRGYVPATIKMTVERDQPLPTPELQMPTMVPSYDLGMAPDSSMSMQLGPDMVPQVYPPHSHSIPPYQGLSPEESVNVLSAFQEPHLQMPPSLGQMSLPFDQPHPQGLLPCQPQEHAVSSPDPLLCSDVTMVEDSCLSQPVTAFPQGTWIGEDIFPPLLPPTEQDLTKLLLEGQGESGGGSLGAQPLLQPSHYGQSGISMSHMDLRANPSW
Assay: STAT6 Degrader Assay (HiBiT based, HeLa LgBiT clone 4.14 cells)
Assay type: cell-based
Conditions: for Emax: HeLa, maximal STAT6 degradation; for DC50: geometric mean across assay runs and compound batches, DC50 provided for test compounds with >80% Emax, read-out: STAT6 degradation DC50
Description: This was a HiBit based assay. A HeLa cell line stably transfected with a small protein, LgBit (Large Bit) was obtained from Promega. These cells express endogenous STAT6. A small 11 amino acid gene sequence (HiBiT) was inserted in the STAT6 gene using CRISPR technology. Once STAT6 protein is expressed in the cells, the HiBiT sequence will bind the LgBit in the cells resulting in a functional NanoBiT protein, giving a luminescent tag to STAT6. Single cell clones were prepared and the clone 4.14 was selected for the assay based on that clone showing high luminescence, high STAT6 phosphorylation upon stimulation with IL-4, and inhibition of luminescence when cells were treated with STAT6 siRNA. HeLa LgBiT clone 4.14 cells were suspended in DMEM with 10% FCS, 1% Pen/Strep, Na-pyrovate and Hygromycin B, at a concentration of 1.25*105 cells pr mL. 5000 cells were added pr well of a 384 well plate and 20 nL of compound was added by Echo® liquid handler. NN6394A (terfenadine, a toxic compound) was added to control wells at 50 μM concentration to establish the assay window. In these wells the cells are dead which equals 100% degradation of STAT6. After 4-24 h of incubation at 37° C. under 5% CO2/95% air, 5 μL substrate (Nano-GLO®) was added to the wells and the plates were centrifuged and incubated for 0.5 h. The luminescence in the wells as a measure of non-degraded STAT6 was measured in a plate reader (BMG Pherastar FSX). The measured DC50 (in nM) was determined.

Row | Emax | DC50 | SMILES
1 | 50 to 60% | – | Cc1cc(C(=O)N(C)c2ccc(C3CCN(c4ccc(NC5CCC(=O)NC5=O)cc4F)CC3)cc2)cc(F)c1C1=CCN([C@H](C)c2cc3c(-n4ccc5[nH]ccc5c4=O)ccnc3n2C)CC1 (stereo partly drawn) [Example 2g134, N-(4-(1-(4-((2,6-dioxopiper-idin-3-yl)amino)-2-fluoro-phenyl)piperidin-4-yl)phen-yl)-3-fluoro-N,5-dimethyl-4-(1-((R)-1-(1-methyl-4-(4-oxo-1,4-dihydro-5H-pyrrolo[3,2-c]pyridin-5-yl)-1H-pyrrolo [2,3-b]pyridin-2-yl)ethyl)-1,2,3,6-tetrahydropyridin-4-yl)benzamide]
2 | – | 12.2 nM | CNc1ccn(-c2ccnc3c2cc([C@H](C)N2CCC(c4c(C)cc(C(=O)N5CCC(CN6CCN(c7ccc(N[C@@H]8CCC(=O)NC8=O)cc7F)CC6)CC5)cc4F)CC2)n3C)c(=O)c1 (single isomer, unassigned) [Example 2g44]
3 | – | 11 nM | CNc1ccn(-c2ccnc3c2cc([C@H](C)N2CC=C(c4c(C)cc(C(=O)N5CCC(CN6CCN(c7ncc(N[C@H]8CCC(=O)NC8=O)cc7F)C[C@@H]6C)CC5)cc4F)CC2)n3C)c(=O)c1 (single isomer, unassigned) [Example 2g95]
4 | – | 5.9 nM | CNc1cc(=O)n(-c2ccnc3c2cc([C@H](C)N2CC=C(c4c(C)cc(C(=O)N5CCC(CN6CCN(c7ccc(N[C@H]8CCC(=O)NC8=O)cc7F)CC6)CC5)cc4F)CC2)n3C)cc1F (single isomer, unassigned) [Example 2g92]
5 | – | 2.4 nM | CNc1ccn(-c2ccnc3c2cc([C@H](C)N2CC=C(c4c(C)cc(C(=O)N5CCC(CN6CCN(c7ccc(N[C@@H]8CCC(=O)NC8=O)cc7F)CC6)CC5)cc4F)CC2)n3C)c(=O)c1 (single isomer, unassigned) [Example 2g38]
6 | 30 to 40% | – | COc1cc(N2CCN(CC3CCN(C(=O)c4cc(C)c(C5=CCN([C@@H](C)c6cc7c(-n8cc(F)c9c(c8=O)CCN9)ccnc7n6C)CC5)c(F)c4)CC3)CC2)ccc1NC1CCC(=O)NC1=O (stereo partly drawn) [Example 2g130, 3-((4-(4-((1-(3-fluoro-4-(1-((S)-1-(4-(7-fluoro-4-oxo-1,2,3,4-tetrahydro-5H-pyr-rolo-[3,2-c]pyridin-5-yl)-1-methyl-1H-pyrrolo[2,3-b]pyridin-2-yl)ethyl)-1,2,3,6-tetrahydropyridin-4-yl)-5-methylbenzoyl)piperidin-4-yl)methyl)piperazin-1-yl)-2-methoxyphenyl)amino)piper-idine-2,6-dione]
7 | – | 3.3 nM | Cc1cc(C(=O)N2CCC(CN3CCN(c4ccc(NC5CCC(=O)NC5=O)cc4F)C[C@H]3C)CC2)cc(F)c1C1=CCN([C@@H](C)c2cc3c(-n4ccc5c(c4=O)CCN5)ccnc3n2C)CC1 (stereo partly drawn) [Example 2g22, 3-((3-fluoro-4-((R)-4-((1-(3-fluoro-5-methyl-4-(1-((S)-1-(1-methyl-4-(4-oxo-1,2,3,4-tetrahydro-5H-pyrrolo[3,2-c]pyridin-5-yl)-1H-pyrrolo[2,3-b]pyridin-2-yl)ethyl)-1,2,3,6-tetrahydro-pyridin-4-yl)-benzoyl)piperidin-4-yl)meth-yl)-3-methylpiperazin-1-yl)-phenyl)amino)piperidine-2,6-dione]
8 | – | 2.6 nM | COc1cc(C2CCN(Cc3cc4n(n3)CCN(C(=O)c3ccc(C5CCN([C@@H](C)c6cc7c(-n8ccc9c(c8=O)CCN9)ccnc7n6C)CC5)cc3)C4)CC2)ccc1NC1CCC(=O)NC1=O (stereo partly drawn) [Example 2g30, 3-((2-methoxy-4-(1-((5-(4-(1-((S)-1-(1-methyl-4-(4-oxo-1,2,3,4-tetrahydro-5H-pyrrolo [3,2-c]pyridin-5-yl)-1H-pyrrolo[2,3-b]pyridin-2-yl)-ethyl)piperidin-4-yl)benzoyl)-4,5,6,7-tetrahydropyrazolo [1,5-a]pyrazin-2-yl)methyl)-piperidin-4-yl)phenyl)amino)-piperidine-2,6-dione]
9 | < 20% | – | Cc1cc(C(=O)N2CCC(CN3CCN(c4ncc(NC5CCC(=O)NC5=O)cc4F)CC3)CC2)cc(F)c1C1=CCN([C@@H](C)c2cc3c(-n4ccc5c(c4=O)CCN5)ccnc3n2C)CC1 (stereo partly drawn) [Example 2g49, 3-((5-fluoro-6-(4-((1-(3-fluoro-5-methyl-4-(1-((S)-1-(1-methyl-4-(4-oxo-1,2,3,4-tetrahydro-5H-pyrrolo[3,2-c]pyridin-5-yl)-1H-pyrrolo [2,3-b]pyridin-2-yl)ethyl)-1,2,3,6-tetrahydropyridin-4-yl)benzoyl)piperidin-4-yl)-methyl)piperazin-1-yl)-pyridin-3-yl)amino)piperi-dine-2,6-dione]
10 | – | 7.66 nM | CNc1ccn(-c2ccnc3c2cc([C@H](C)N2CC=C(c4c(F)cc(C(=O)N5CCC(CN6CCN(c7ccc(N[C@H]8CCC(=O)NC8=O)cc7F)CC6)CC5)cc4F)CC2)n3C)c(=O)c1 (single isomer, unassigned) [Example 2g106]
11 | 70 to 80% | – | CNc1ccn(-c2ccnc3c2cc(CN2CC=C(c4c(C)cc(C(=O)N5CCC(CN6CCN(c7ccc(N[C@H]8CCC(=O)NC8=O)cc7F)CC6)CC5)cc4F)CC2)n3C)c(=O)c1 (single isomer, unassigned) [Example 2g55]
12 | – | 18 nM | CNc1ccn(-c2ccnc3c2cc(CN2CCC(c4c(C)cc(C(=O)N5CCC(CN6CCN(c7ccc(N[C@H]8CCC(=O)NC8=O)cc7F)CC6)CC5)cc4F)CC2)n3C)c(=O)c1 (single isomer, unassigned) [Example 2g62]
13 | – | 4.5 nM | Cc1cc(C(=O)N2CCC(CN3CCN(c4ccc(N[C@H]5CCC(=O)NC5=O)cc4F)CC3)CC2)cc(F)c1C1=CCN([C@@H](C)c2cc3c(-n4ccc5c(c4=O)CCN5)ccnc3n2C)CC1 (single isomer, unassigned) [Example 2g19]
14 | – | 15.1 nM | CNc1cc(=O)n(-c2ccnc3c2cc(CN2CCC(c4c(F)cc(C(=O)N5CCC(CN6CCN(c7ccc(N[C@H]8CCC(=O)NC8=O)cc7F)CC6)CC5)cc4F)CC2)n3C)cc1F (single isomer, unassigned) [Example 2g34]
15 | – | 3.6 nM | CNc1cc(=O)n(-c2ccnc3c2cc([C@H](C)N2CC=C(c4c(C)cc(C(=O)N5CCC(CN6CCN(c7ccc(N[C@H]8CCC(=O)NC8=O)cc7F)C[C@H]6C)CC5)cc4F)CC2)n3C)cc1F (single isomer, unassigned) [Example 2g29]
16 | – | 22.2 nM | CNc1ccn(-c2ccnc3c2cc([C@H](C)N2CC=C(c4c(C)cc(C(=O)N5CCC(CN6CCN(c7ccc(N[C@@H]8CCC(=O)NC8=O)cc7F)C[C@@H]6C)CC5)cc4F)CC2)n3C)c(=O)c1 (single isomer, unassigned) [Example 2g99]
17 | 50 to 60% | – | C[C@@H](c1cc2c(-n3cc(F)c4c(c3=O)CCN4)ccnc2n1C)N1CC=C(c2c(F)cc(C(=O)N3CCC(CN4CCN(c5ccc(NC6CCC(=O)NC6=O)cc5F)CC4)CC3)cc2F)CC1 (stereo partly drawn) [Example 2g131, 3-((4-(4-((1-(3,5-difluoro-4-(1-((S)-1-(4-(7-fluoro-4-oxo-1,2,3,4-tetrahydro-5H-pyrrolo [3,2-c]pyridin-5-yl)-1-methyl-1H-pyrrolo[2,3-b]pyridin-2-yl)ethyl)-1,2,3,6-tetrahydro-pyridin-4-yl)benzoyl)piper-idin-4-yl)methyl)piperazin-1-yl)-3-fluorophenyl)amino)-piperidine-2,6-dione]

From patent publication US20250320205A1, “STAT6 DEGRADERS” (Gilead Sciences, Inc., priority 2024, published 2025)
